Results reported in US20110081315A1, “NOVEL MACROCYCLIC INHIBITORS OF HEPATITIS C VIRUS REPLICATION” (INTERMUNE, INC., priority 2009, published 2011).

Key:
NS3/NS4 complexes = NS3/NS4 complexes (Hepatitis C virus genotype 1a, UniProt P27958); assay: NS3/NS4 inhibition assay (IC50); type: biochemical; details: NS3/NS4 activity; 23° C., 25 μM NS4A peptide
Source text: (§1) NS3-NS4 inhibition activity can be determined using known assay methods. For example, NS3/NS4 complexes may be formed and inhibitory concentrations of test compounds determined as described in U.S. Patent Application Publication Number 2007/0054842 paragraph numbers 1497-1509, which is incorporated herein by reference in its entirety. Similarly, hepatitis C replicon EC50 may be determined using known assay methods such as described in U.S. Patent Application Publication Number 2007/0054842 paragraph numbers 1510-1515, which is incorporated herein by reference in its entirety. Assays may be conducted at ambient temperature (23° C.) in assay buffer containing 50 mM Tris-HCl, pH 7.5, 15% glycerol, 0.6 mM Lauryldimethylamine Oxide (LDAO), 25 μM NS4A peptide, and 10 mM Dithiothreitol (DTT).

hepatitis C replicon = hepatitis C replicon EC50 assay; type: cell-based; details: Hepatitis C virus; hepatitis C replicon; read-out: EC50
Source text: as §1

NS3/NS4 complexes, sequence (P27958 1027-1657, one chain of several): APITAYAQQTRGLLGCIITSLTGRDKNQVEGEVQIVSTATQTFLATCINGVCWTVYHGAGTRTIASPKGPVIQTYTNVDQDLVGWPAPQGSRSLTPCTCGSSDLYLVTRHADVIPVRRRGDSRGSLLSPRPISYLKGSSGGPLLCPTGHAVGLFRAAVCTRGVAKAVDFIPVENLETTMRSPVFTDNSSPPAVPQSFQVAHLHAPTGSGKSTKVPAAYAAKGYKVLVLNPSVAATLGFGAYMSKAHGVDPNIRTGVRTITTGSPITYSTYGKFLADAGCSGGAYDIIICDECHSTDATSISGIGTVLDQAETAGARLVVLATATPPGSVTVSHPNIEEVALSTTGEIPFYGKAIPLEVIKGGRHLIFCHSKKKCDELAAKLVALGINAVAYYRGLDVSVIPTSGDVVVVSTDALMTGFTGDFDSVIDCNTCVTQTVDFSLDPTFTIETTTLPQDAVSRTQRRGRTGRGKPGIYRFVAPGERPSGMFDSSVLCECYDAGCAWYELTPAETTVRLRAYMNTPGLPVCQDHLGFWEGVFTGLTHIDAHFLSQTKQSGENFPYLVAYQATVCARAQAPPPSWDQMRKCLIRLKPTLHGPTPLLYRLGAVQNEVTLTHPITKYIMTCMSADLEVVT

Structure (SMILES) | IC50 (NS3/NS4 complexes) [µM] | EC50 (hepatitis C replicon) [µM]
CC(C)n1c(O[C@@H]2C[C@H]3C(=O)N[C@]4(C(=O)NS(=O)(=O)C5(C)CC5)C[C@H]4/C=C\CCCCC[C@H](Nc4ccccc4)C(=O)N3C2)nc2c(-c3ccc(F)cc3)cccc21 [Compound 238] | < 0.01 | 0.01 to 0.1
CC(C)n1c(O[C@@H]2C[C@H]3C(=O)N[C@]4(C(=O)NS(=O)(=O)C5(C)CC5)C[C@H]4/C=C\CCCCC[C@H](Nc4ccccc4)C(=O)N3C2)nc2c(-c3cccc(F)c3)cccc21 [Compound 239] | < 0.01 | 0.01 to 0.1
CC(C)n1c(O[C@@H]2C[C@H]3C(=O)N[C@]4(C(=O)NS(=O)(=O)C5(C)CC5)C[C@H]4/C=C\CCCCC[C@H](Nc4ccccc4)C(=O)N3C2)nc2c(-c3ccc(C#N)cc3)cccc21 [Compound 240] | < 0.01 | 0.01 to 0.1
CC(C)n1c(O[C@@H]2C[C@H]3C(=O)N[C@]4(C(=O)NS(=O)(=O)C5(C)CC5)C[C@H]4/C=C\CCCCC[C@H](Nc4ccccc4)C(=O)N3C2)nc2c(-c3cccc(C#N)c3)cccc21 [Compound 241] | < 0.01 | 0.01 to 0.1
CC(C)n1c(O[C@@H]2C[C@H]3C(=O)N[C@]4(C(=O)NS(=O)(=O)C5(C)CC5)C[C@H]4/C=C\CCCCC[C@H](Nc4ccccc4)C(=O)N3C2)nc2c(-c3ccccc3F)cccc21 [Compound 242] | < 0.01 | 0.01 to 0.1
CC(C)n1c(O[C@@H]2C[C@H]3C(=O)N[C@]4(C(=O)NS(=O)(=O)C5(C)CC5)C[C@H]4/C=C\CCCCC[C@H](Nc4ccccc4)C(=O)N3C2)nc2c(-c3ccc(F)c(F)c3)cccc21 [Compound 243] | < 0.01 | > 0.1
COc1cccc(-c2cccc3c2nc(O[C@@H]2C[C@H]4C(=O)N[C@]5(C(=O)NS(=O)(=O)C6(C)CC6)C[C@H]5/C=C\CCCCC[C@H](Nc5ccccc5)C(=O)N4C2)n3C(C)C)c1 [Compound 244] | < 0.01 | 0.01 to 0.1
Cc1cc(F)cc(-c2cccc3c2nc(O[C@@H]2C[C@H]4C(=O)N[C@]5(C(=O)NS(=O)(=O)C6(C)CC6)C[C@H]5/C=C\CCCCC[C@H](Nc5ccccc5)C(=O)N4C2)n3C(C)C)c1 [Compound 245] | < 0.01 | > 0.1
CC(C)n1c(O[C@@H]2C[C@H]3C(=O)N[C@]4(C(=O)NS(=O)(=O)C5(C)CC5)C[C@H]4/C=C\CCCCC[C@H](Nc4ccccc4)C(=O)N3C2)nc2c(-c3ccc(F)c(C(F)(F)F)c3)cccc21 [Compound 246] | < 0.01 | > 0.1
CC(C)n1c(O[C@@H]2C[C@H]3C(=O)N[C@]4(C(=O)NS(=O)(=O)C5(C)CC5)C[C@H]4/C=C\CCCCC[C@H](Nc4ccccc4)C(=O)N3C2)nc2c(-c3cccc(OC(F)(F)F)c3)cccc21 [Compound 247] | < 0.01 | > 0.1
CC(C)n1c(O[C@@H]2C[C@H]3C(=O)N[C@]4(C(=O)NS(=O)(=O)C5(C)CC5)C[C@H]4/C=C\CCCCC[C@H](Nc4ccccc4)C(=O)N3C2)nc2c(-c3cccc(C(=O)N(C)C)c3)cccc21 [Compound 248] | < 0.01 | 0.01 to 0.1
CC(C)n1c(O[C@@H]2C[C@H]3C(=O)N[C@]4(C(=O)NS(=O)(=O)C5(C)CC5)C[C@H]4/C=C\CCCCC[C@H](Nc4ccccc4)C(=O)N3C2)nc2c(-c3ccc(OC(F)(F)F)cc3)cccc21 [Compound 249] | < 0.01 | > 0.1
Cc1ccccc1-c1cccc2c1nc(O[C@@H]1C[C@H]3C(=O)N[C@]4(C(=O)NS(=O)(=O)C5(C)CC5)C[C@H]4/C=C\CCCCC[C@H](Nc4ccccc4)C(=O)N3C1)n2C(C)C [Compound 250] | < 0.01 | > 0.1
CC(C)n1c(O[C@@H]2C[C@H]3C(=O)N[C@]4(C(=O)NS(=O)(=O)C5(C)CC5)C[C@H]4/C=C\CCCCC[C@H](Nc4ccccc4)C(=O)N3C2)nc2c(-c3cccc(C(F)(F)F)c3)cccc21 [Compound 251] | < 0.01 | > 0.1
CC(C)n1c(O[C@@H]2C[C@H]3C(=O)N[C@]4(C(=O)NS(=O)(=O)C5(C)CC5)C[C@H]4/C=C\CCCCC[C@H](Nc4ccccc4)C(=O)N3C2)nc2c(-c3ccoc3)cccc21 [Compound 252] | < 0.01 | 0.01 to 0.1
CC(C)n1c(O[C@@H]2C[C@H]3C(=O)N[C@]4(C(=O)NS(=O)(=O)N(C)C)C[C@H]4/C=C\CCCCC[C@H](NC(=O)OC(C)(C)C)C(=O)N3C2)nc2c(-c3ccccc3F)cccc21 [Compound 261] | < 0.01 | 0.01 to 0.1
CC(C)n1c(O[C@@H]2C[C@H]3C(=O)N[C@]4(C(=O)NS(=O)(=O)N(C)C)C[C@H]4/C=C\CCCCC[C@H](NC(=O)OC(C)(C)C)C(=O)N3C2)nc2cc(-c3ccccc3)ccc21 [Compound 262] | < 0.01 | 0.01 to 0.1
CC(C)n1c(O[C@@H]2C[C@H]3C(=O)N[C@]4(C(=O)NS(=O)(=O)C5(C)CC5)C[C@H]4/C=C\CCCCC[C@H](Nc4ccccc4)C(=O)N3C2)nc2c(Cl)cccc21 [Compound 263] | < 0.01 | 0.01 to 0.1

Structure (SMILES) | IC50 (NS3/NS4 complexes) [µM] | EC50 (hepatitis C replicon) [µM]
CC(C)n1c(O[C@@H]2C[C@H]3C(=O)N[C@]4(C(=O)NS(=O)(=O)N(C)C)C[C@H]4/C=C\CCCCC[C@H](NC(=O)OC(C)(C)C)C(=O)N3C2)nc2c(Cl)cccc21 [Compound 264] | < 0.01 | < 0.01
CCc1cccc2c1nc(O[C@@H]1C[C@H]3C(=O)N[C@]4(C(=O)NS(=O)(=O)C5(C)CC5)C[C@H]4/C=C\CCCCC[C@H](Nc4ccccc4)C(=O)N3C1)n2C(C)C [Compound 265] | < 0.01 | 0.01 to 0.1
CCc1cccc2c1nc(O[C@@H]1C[C@H]3C(=O)N[C@]4(C(=O)NS(=O)(=O)N(C)C)C[C@H]4/C=C\CCCCC[C@H](NC(=O)OC(C)(C)C)C(=O)N3C1)n2C(C)C [Compound 266] | < 0.01 | < 0.01
CC(C)n1c(O[C@@H]2C[C@H]3C(=O)N[C@]4(C(=O)NS(=O)(=O)C5(C)CC5)C[C@H]4/C=C\CCCCC[C@H](Nc4ccccc4)C(=O)N3C2)nc2c(C(=O)O)cccc21 [Compound 267] | < 0.01 | > 0.1
CC(C)n1c(O[C@@H]2C[C@H]3C(=O)N[C@]4(C(=O)NS(=O)(=O)C5(C)CC5)C[C@H]4/C=C\CCCCC[C@H](Nc4ccccc4)C(=O)N3C2)nc2c(C(N)=O)cccc21 [Compound 268] | < 0.01 | 0.01 to 0.1
CNC(=O)c1cccc2c1nc(O[C@@H]1C[C@H]3C(=O)N[C@]4(C(=O)NS(=O)(=O)C5(C)CC5)C[C@H]4/C=C\CCCCC[C@H](Nc4ccccc4)C(=O)N3C1)n2C(C)C [Compound 269] | < 0.01 | 0.01 to 0.1
CC(C)n1c(O[C@@H]2C[C@H]3C(=O)N[C@]4(C(=O)NS(=O)(=O)C5(C)CC5)C[C@H]4/C=C\CCCCC[C@H](Nc4ccccc4)C(=O)N3C2)nc2c(C(=O)N(C)C)cccc21 [Compound 270] | < 0.01 | > 0.1
CCNC(=O)c1cccc2c1nc(O[C@@H]1C[C@H]3C(=O)N[C@]4(C(=O)NS(=O)(=O)C5(C)CC5)C[C@H]4/C=C\CCCCC[C@H](Nc4ccccc4)C(=O)N3C1)n2C(C)C [Compound 271] | < 0.01 | 0.01 to 0.1
CC(C)NC(=O)c1cccc2c1nc(O[C@@H]1C[C@H]3C(=O)N[C@]4(C(=O)NS(=O)(=O)C5(C)CC5)C[C@H]4/C=C\CCCCC[C@H](Nc4ccccc4)C(=O)N3C1)n2C(C)C [Compound 272] | < 0.01 | 0.01 to 0.1
CC(C)n1c(O[C@@H]2C[C@H]3C(=O)N[C@]4(C(=O)NS(=O)(=O)C5(C)CC5)C[C@H]4/C=C\CCCCC[C@H](Nc4ccccc4)C(=O)N3C2)nc2c(C(=O)Nc3ccccc3)cccc21 [Compound 273] | < 0.01 | 0.01 to 0.1
CC(C)n1c(O[C@@H]2C[C@H]3C(=O)N[C@]4(C(=O)NS(=O)(=O)C5(C)CC5)C[C@H]4/C=C\CCCCC[C@H](Nc4ccccc4)C(=O)N3C2)nc2c(C(=O)NCc3ccccc3)cccc21 [Compound 274] | < 0.01 | 0.01 to 0.1
CC(C)n1c(O[C@@H]2C[C@H]3C(=O)N[C@]4(C(=O)NS(=O)(=O)C5(C)CC5)C[C@H]4/C=C\CCCCC[C@H](Nc4ccccc4)C(=O)N3C2)nc2c(C(=O)NCCc3ccccc3)cccc21 [Compound 275] | < 0.01 | 0.01 to 0.1
CC(C)n1c(O[C@@H]2C[C@H]3C(=O)N[C@]4(C(=O)NS(=O)(=O)N(C)C)C[C@H]4/C=C\CCCCC[C@H](NC(=O)OC(C)(C)C)C(=O)N3C2)nc2c(C(=O)O)cccc21 [Compound 276] | < 0.01 | > 0.1
CC(C)n1c(O[C@@H]2C[C@H]3C(=O)N[C@]4(C(=O)NS(=O)(=O)N(C)C)C[C@H]4/C=C\CCCCC[C@H](NC(=O)OC(C)(C)C)C(=O)N3C2)nc2c(C(N)=O)cccc21 [Compound 277] | < 0.01 | < 0.01
CNC(=O)c1cccc2c1nc(O[C@@H]1C[C@H]3C(=O)N[C@]4(C(=O)NS(=O)(=O)N(C)C)C[C@H]4/C=C\CCCCC[C@H](NC(=O)OC(C)(C)C)C(=O)N3C1)n2C(C)C [Compound 278] | < 0.01 | 0.01 to 0.1
CC(C)n1c(O[C@@H]2C[C@H]3C(=O)N[C@]4(C(=O)NS(=O)(=O)N(C)C)C[C@H]4/C=C\CCCCC[C@H](NC(=O)OC(C)(C)C)C(=O)N3C2)nc2c(C(=O)N(C)C)cccc21 [Compound 279] | < 0.01 | > 0.1
CCNC(=O)c1cccc2c1nc(O[C@@H]1C[C@H]3C(=O)N[C@]4(C(=O)NS(=O)(=O)N(C)C)C[C@H]4/C=C\CCCCC[C@H](NC(=O)OC(C)(C)C)C(=O)N3C1)n2C(C)C [Compound 280] | < 0.01 | < 0.01
CC(C)NC(=O)c1cccc2c1nc(O[C@@H]1C[C@H]3C(=O)N[C@]4(C(=O)NS(=O)(=O)N(C)C)C[C@H]4/C=C\CCCCC[C@H](NC(=O)OC(C)(C)C)C(=O)N3C1)n2C(C)C [Compound 281] | < 0.01 | < 0.01
